Measured values taken from patent US9051562B2, “Polypeptides isolated from brevibacterium aurantiacum and their use for the treatment of cancer” (Institut National de la Santé et de la Recherche Médicale …, priority 2011, dated 2015).

Assays:
[1] = biological target: Brevibacterium aurantiacum (ATCC 9175; formerly B. linens) methionine gamma-lyase MGL-BL929, recombinant, SEQ ID NO: 1 (Brevibacterium aurantiacum, UniProt A0A2H1K3G9); conditions: for activity of the enzyme towards the substrate (in words): 25 mM of substrate; for activity of the enzyme towards the substrate (in words) / Vmax: pH 7.5, 25° C., 10 min; for Vmax: 100 mM K*PO4, 0.01 mM PLP
HT29MTX cells = experiment: Growth inhibition of HT29MTX cells (Trypan blue dye exclusion), resistance to methotrexate; type: cell-based, human; conditions: 1 μM methotrexate
Excerpt: Seven human tumor cell lines were used to determine the cellular effects of MGL-BL929. These comprise five adherent solid tumor-derived cell lines (including the colorectal carcinoma cell line HT29, two stable variants of HT29 selected for their high levels of resistance to methotrexate (HT29MTX), and to fluorouracil (HT29FUra), the ovarian carcinoma cell line SKOV3, and the hepatoblastoma-derived cell line (HepG2), and 2 non-adherent tumor cell lines (including the T-cell lymphoma cell line Jurkat, and the acute lymphocytic leukemia cell line Reh). Similarly, human non-tumor skin fibroblasts (CDGII) were exposed to MGL-BL929 at various concentrations in order to explore selectivity of MGL-BL929 towards cancer cells.
The cells lines were thawed from mycoplasma-free frozen stocks and were controlled for contamination. Cells were maintained in cell culture medium (RPMI 1640 or DMEM according to the growth requirements of each cell line), supplemented with 10% FBS and antibiotics (streptomycin, 50 μg/mL, and penicillin, 50 U/mL) at 37° in an atmosphere containing 5% CO2. Cells were exposed in 12 well-cell plates to the purified recombinant MGL-BL929 at a concentration range from 0.05 U/mL to 5 U/mL, and were harvested 24 hr., 48 hr., 72 hr., and 96 hr. from start of the exposure. Cell viability was measured with the Trypan blue dye exclusion test in Malassez chambers.

## CSCC[C@@H](N)C(=O)O [D-methionine]
[1]
  activity of the enzyme towards the substrate (in words): no activity
  Vmax: 0 μmol · min^−1 · m^−1

## N[C@@H](CCSC[C@H](N)C(=O)O)C(=O)O [L-Cystathionine, L-cystathionine]
[1]
  activity of the enzyme towards the substrate (in words): no activity
  Vmax: 0 μmol · min^−1 · m^−1

## N[C@@H](CS)C(=O)O [L-Cysteine, L-cysteine]
[1]
  activity of the enzyme towards the substrate (in words): no activity
  Vmax: 0 μmol · min^−1 · m^−1

## N[C@@H](CCS)C(=O)O [L-Homocysteine, L-homocysteine]
[1]
  Vmax: 27.7 ± 5.7 μmol · min^−1 · m^−1
[1]; L-homocysteine compared with L-methionine
  Affinity relative to L-methionine (fold greater): 7.3 fold

## CSCC[C@H](N)C(=O)O [L-Methionine, L-methionine]
[1]
  Vmax: 5.77 ± 1.4 μmol · min^−1 · m^−1

## Nc1ncnc2c1ncn2[C@@H]1O[C@H](CSCC[C@H](N)C(=O)O)[C@@H](O)[C@H]1O [S-Adenosyl L-homocysteine]
[1]
  activity of the enzyme towards the substrate (in words): no activity
  Vmax: 0 μmol · min^−1 · m^−1

## CN(Cc1cnc2nc(N)nc(N)c2n1)c1ccc(C(=O)N[C@@H](CCC(=O)O)C(=O)O)cc1 [methotrexate]
HT29MTX cells
  resistance of the cells to methotrexate (in words): fully resistant
